Laboratory results taken from patent publication EP0820452B1, “CARBONYL-PIPERAZINYL AND PIPERIDINIL COMPOUNDS WHICH INHIBIT FARNESYL PROTEIN TRANSFERASE” (SCHERING CORPORATION, priority 1995, dated 1996).

Target: FTase (Homo sapiens, UniProt P49354+P49356)
Assay: in vitro assay measuring the inhibition of FTase (FPT IC50), methods of WO95/10516
Format: biochemical
Settings: concentration of compound which inhibits 50% of FPT transferase
Text: Measurements of pharmacological activity of the present compounds can be made based upon a […] (i.e. FPT lC50), cell mat assay (GGPT lC50) or in vitro tumor activity (Cos Cell lC50) as described by the methods in W095/10516.
FPT lC50 values refer to concentration, in micromoles (µM), of compound which inhibits 50% of FPT transferase

Sequence of FTase (P49356 whole entry, one chain of several): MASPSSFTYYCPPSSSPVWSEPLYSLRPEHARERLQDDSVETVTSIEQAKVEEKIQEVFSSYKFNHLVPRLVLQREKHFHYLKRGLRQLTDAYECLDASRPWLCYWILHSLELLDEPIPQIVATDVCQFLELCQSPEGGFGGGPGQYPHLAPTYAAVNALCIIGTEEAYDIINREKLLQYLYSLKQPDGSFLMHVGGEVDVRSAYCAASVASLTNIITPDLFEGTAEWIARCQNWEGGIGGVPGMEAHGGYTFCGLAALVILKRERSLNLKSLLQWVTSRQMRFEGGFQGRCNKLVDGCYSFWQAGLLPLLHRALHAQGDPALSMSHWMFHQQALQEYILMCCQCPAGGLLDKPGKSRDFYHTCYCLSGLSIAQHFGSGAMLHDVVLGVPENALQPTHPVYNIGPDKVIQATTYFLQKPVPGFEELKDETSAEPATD

CC(C)NC(=O)CC1CN(C(=O)c2ccc3ccccc3c2)CCN1C(=O)Cc1ccncc1 (stereo not shown)
IC50: > 50 µM
